A word on the pIC50: it is −log10 of the IC50, conventionally taken in molar units.

Assay type in all cases: biochemical
The target in one experiment is human Akt1 (Homo sapiens (Human), UniProt P31749). The experiment in a line: Inhibitory effects on Akt1 kinase activity (TR-FRET, biotinylated Crosstide). Particulars: Akt1, ATP 150 μM, pre-incubation 120 minutes at 25° C.; read-out: AKT inhibitory activity IC50. The procedure:
Akt1 was prepared and assays of inhibitory activity of the compound according to the present invention against Akt1 kinase activity in vitro were conducted according to the method described in Biochem. J., vol. 385, pp. 399-408, 2005 and Cancer Res., vol. 68, pp. 2366-2374, 2008. In the preparation of Akt1 protein, human Akt1 tagged with the middle T antigen was expressed in an insect cell Sf9, Akt1 was prepared through affinity purification and activation by PDK1, and the resultant was stored at −80° C. until the inhibition assays of the compounds. In the inhibition assay of the compounds, Akt1 and the compound according to the present invention were subjected to pre-incubation at 25° C. for 120 minutes in a reaction buffer (15 mM Tris-HCl, pH 7.5, 0.01% Tween-20, 2 mM DTT). Subsequently, biotinylated Crosstide (biotin-[…], Millipore), MgCl2, and ATP were added as substrates at the final concentration of 500 nM, 10 mM, and 150 μM, respectively, and the reaction was allowed to proceed at 25° C. for 60 minutes. EDTA was added to the final concentration of 40 mM to terminate the reaction, a detection liquid containing the Eu-anti-phospho-Crosstide antibody (PerkinElmer) and SureLight APC-SA (PerkinElmer) at the final concentration of 0.5 nM and 62.5 nM, respectively was added, and the reaction was allowed to proceed at room temperature for 2 hours. In the end, the fluorescence levels irradiated with an excitation light of 337 nm were assayed at two different wavelength levels (i.e., 620 nm and 665 nm) using PI-HERAstar FS (BMG LABTECH) or PHERAstar (BMG LABTECH). The level of the phosphorylation reaction was determined on the basis of the ratio of fluorescence levels at two wavelength levels, and the concentration of the compound at which phosphorylation could be inhibited by 50% was defined as the IC50 level (nM) and shown in Table 2.
As reference compounds, conventional Comparative Example A (WO 2010/056563 (Example 31)) and Comparative Example B having inhibitory activity against Akt were used.
In general terms: TR-FRET usually uses a lanthanide donor and a delayed reading to cut background.

The target in another experiment is Rsk1 (Homo sapiens (Human), UniProt Q15418). The experiment in a line: Inhibitory effects on Rsk1 kinase activity (QSS Assist FP assay kit). To be noted: Rsk1, ATP 30 μM; read-out: Rsk inhibitory activity IC50. As for the experimental part: Inhibitory activity of the compound according to the present invention on Rsk1 kinase activity in vitro was assayed using the QSS Assist™ FP assay kit (Carna Biosciences, Inc.).
Chain of Rsk1 (Q15418 whole entry): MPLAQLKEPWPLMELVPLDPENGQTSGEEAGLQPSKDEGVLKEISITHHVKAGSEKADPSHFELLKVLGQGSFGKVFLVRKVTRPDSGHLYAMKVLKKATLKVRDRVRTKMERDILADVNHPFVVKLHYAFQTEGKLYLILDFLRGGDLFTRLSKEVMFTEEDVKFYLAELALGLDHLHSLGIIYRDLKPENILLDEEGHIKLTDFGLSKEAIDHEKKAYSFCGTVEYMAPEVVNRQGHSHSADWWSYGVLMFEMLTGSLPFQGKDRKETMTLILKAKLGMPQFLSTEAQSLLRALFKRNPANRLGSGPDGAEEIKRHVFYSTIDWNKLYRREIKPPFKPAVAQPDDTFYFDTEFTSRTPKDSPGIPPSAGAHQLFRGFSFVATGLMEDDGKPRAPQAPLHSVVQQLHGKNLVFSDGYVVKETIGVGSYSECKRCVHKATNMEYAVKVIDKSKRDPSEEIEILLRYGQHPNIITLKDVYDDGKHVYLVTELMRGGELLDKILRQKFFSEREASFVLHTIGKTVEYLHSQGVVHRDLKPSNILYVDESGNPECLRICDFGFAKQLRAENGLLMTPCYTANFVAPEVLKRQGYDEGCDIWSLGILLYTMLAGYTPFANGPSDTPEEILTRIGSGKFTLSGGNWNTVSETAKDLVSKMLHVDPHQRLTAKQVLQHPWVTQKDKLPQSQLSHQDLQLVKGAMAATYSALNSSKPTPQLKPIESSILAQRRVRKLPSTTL
In the inhibition assay of inhibitory activity of the compound, the test compound was diluted by serial dilution with dimethyl sulfoxide (DMSO). Subsequently, an Rsk1 protein, a substrate peptide (final concentration: 100 nM), magnesium chloride (final concentration: 10 mM), ATP (final concentration: 30 μM), and the solution of the test compound in DMSO (DMSO final concentration: 5%) were added to the kinase reaction buffer (20 mM HEPES (pH 7.4), 2 mM dithiothreitol, 0.01% Tween-20), and the mixture was incubated at 25° C. for 40 minutes to perform the kinase reaction. The IMAP Progressive Binding Reagent diluted to 400-fold with the IMAP Progressive Binding Buffer A (Molecular Devices, LLC) was added to terminate the kinase reaction.

The target of a further experiment is S6K1 (Homo sapiens (Human), UniProt P23443). The experiment in a line: Inhibitory effects on S6K1 kinase activity (QSS Assist FP assay kit). To be noted: S6K1, ATP 25 μM; read-out: S6K inhibitory activity IC50. As for the experimental part: Inhibitory activity of the compound according to the present invention on S6K1 kinase activity in vitro was assayed using the QSS Assist™ FP assay kit (Carna Biosciences, Inc.).
Chain of S6K1 (P23443 whole entry): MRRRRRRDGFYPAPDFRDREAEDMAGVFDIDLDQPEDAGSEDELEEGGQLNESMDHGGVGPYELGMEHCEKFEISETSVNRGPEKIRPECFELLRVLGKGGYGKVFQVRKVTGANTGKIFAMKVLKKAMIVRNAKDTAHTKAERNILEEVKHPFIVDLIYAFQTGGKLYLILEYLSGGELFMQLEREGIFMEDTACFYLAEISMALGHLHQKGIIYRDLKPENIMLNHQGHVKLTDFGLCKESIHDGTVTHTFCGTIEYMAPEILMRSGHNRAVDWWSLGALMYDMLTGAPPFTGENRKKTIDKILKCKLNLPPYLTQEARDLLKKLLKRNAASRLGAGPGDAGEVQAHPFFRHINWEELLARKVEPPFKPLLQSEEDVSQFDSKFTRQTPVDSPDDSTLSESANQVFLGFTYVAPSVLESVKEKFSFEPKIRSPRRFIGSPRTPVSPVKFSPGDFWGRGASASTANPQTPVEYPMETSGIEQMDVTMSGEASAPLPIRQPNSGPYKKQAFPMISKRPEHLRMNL
In the inhibition assay for inhibitory activity of the compound, the test compound was diluted by serial dilution with dimethyl sulfoxide (DMSO). Subsequently, an S6K protein, a substrate peptide (final concentration: 100 nM), magnesium chloride (final concentration: 5 mM), ATP (final concentration: 25 μM), and the solution of the test compound in DMSO (final DMSO concentration: 5%) were added to the kinase reaction buffer (20 mM HEPES (pH 7.4), 2 mM dithiothreitol, 0.01% Tween-20), and the mixture was incubated at 25° C. for 30 minutes to perform the kinase reaction. The IMAP Progressive Binding Reagent diluted to 400-fold with the IMAP Progressive Binding Buffer A (Molecular Devices, LLC) was added thereto to terminate the kinase reaction. The reaction product was allowed to stand at room temperature in the dark for 120 minutes and assayed with the use of PHERAstar (BMG LABTECH; excitation wavelength: 485 nm; detection wavelength: 520 nm). The level of phosphorylation reaction was determined based on the degree of fluorescence polarization, and the concentration of the compound at which phosphorylation could be inhibited by 50% was defined as the IC50 level (nM) and shown in Table 4.

pIC50: −log10 of the molar value.

Chain of human Akt1 (P31749 whole entry): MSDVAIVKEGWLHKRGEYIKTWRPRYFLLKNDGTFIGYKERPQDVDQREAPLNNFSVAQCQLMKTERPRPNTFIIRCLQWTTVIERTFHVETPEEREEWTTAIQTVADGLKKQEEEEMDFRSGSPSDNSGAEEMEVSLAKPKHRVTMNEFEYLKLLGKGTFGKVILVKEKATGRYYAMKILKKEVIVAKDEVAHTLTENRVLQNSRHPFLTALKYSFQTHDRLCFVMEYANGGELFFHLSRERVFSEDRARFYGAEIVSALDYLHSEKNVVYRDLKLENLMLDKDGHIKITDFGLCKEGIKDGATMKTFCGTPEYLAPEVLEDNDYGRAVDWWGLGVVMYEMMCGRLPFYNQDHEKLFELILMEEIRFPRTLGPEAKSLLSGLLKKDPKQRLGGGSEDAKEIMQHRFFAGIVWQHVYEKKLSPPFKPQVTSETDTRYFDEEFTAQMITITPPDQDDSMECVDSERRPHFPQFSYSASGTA

For `CC(C)NCCNc1ccc(-c2cc(Cl)nn2C)nc1C1CCN(c2ncnc3c2C(C)(C)C(=O)N3)CC1` [Compound 11, 4-(4-(6-(3-Chloro-1-methyl-1H-pyrazol-5-yl)-3-((2-(isopropylamino)ethyl)amino)pyridin-2-yl)piperidin-1-yl)-5,5-dimethyl-5H-pyrrolo[2,3-d]pyrimidin-6(7H)-one], the pIC50 was 8.24 on human Akt1, 9.15 at Rsk1 and 9.52 at S6K1.

With `COc1cc(-c2ccc(NCCN3CCCC3)c(C3CCN(c4ncnc5c4C(C)C(=O)N5)CC3)n2)c(F)cn1` (stereo not drawn) [Compound 16, 4-(4-(5′-Fluoro-2′-methoxy-5-((2-(pyrrolidin-1-yl)ethyl)amino)-[2,4′-bipyridin]-6-yl)piperidin-1-yl)-5-methyl-5H-pyrrolo[2,3-d]pyrimidin-6(7H)-one], the pIC50 at human Akt1 was 8.72; on Rsk1, 9.10; on S6K1, 9.15.

As to `CC1C(=O)Nc2ncnc(N3CCC(c4nc(-c5cccnc5F)ccc4NCCN4CCCC4)CC3)c21` (stereo not drawn) [Compound 17, 4-(4-(2′-Fluoro-5-((2-(pyrrolidin-1-yl)ethyl)amino)-[2,3′-bipyridin]-6-yl)piperidin-1-yl)-5-methyl-5H-pyrrolo[2,3-d]pyrimidin-6(7H)-one], the results for the pIC50 on human Akt1, on Rsk1 and on S6K1 were 9.22, 8.96 and 9.15, respectively.

For the compound `CC1C(=O)Nc2ncnc(N3CCC(c4nc(-c5ccsc5)ccc4NCCN4CCCC4)CC3)c21` (stereo not drawn) [Compound 18, 5-Methyl-4-(4-(3-((2-(pyrrolidin-1-yl)ethyl)amino)-6-(thiophen-3-yl)pyridin-2-yl)piperidin-1-yl)-5H-pyrrolo[2,3-d]pyrimidin-6(7H)-one], the pIC50 on human Akt1 was 9.30; on Rsk1, 8.85; on S6K1, 9.10.

Regarding `CC1C(=O)Nc2ncnc(N3CCC(c4nc(-c5cncc(F)c5)ccc4NCCN4CCCC4)CC3)c21` (stereo not drawn) [Compound 19, 4-(4-(5′-Fluoro-5-((2-(pyrrolidin-1-yl)ethyl)amino)-[2,3′-bipyridin]-6-yl)piperidin-1-yl)-5-methyl-5H-pyrrolo[2,3-d]pyrimidin-6(7H)-one], the values for the pIC50 on human Akt1, at Rsk1 and on S6K1 were 9.40, 9.05 and 9.30, respectively.

As to `CC1C(=O)Nc2ncnc(N3CCC(c4nc(-c5cc(C(F)(F)F)nn5C)ccc4NCCN4CCCC4)CC3)c21` (stereo not drawn) [Compound 20, 5-Methyl-4-(4-(6-(1-methyl-3-(trifluoromethyl)-1H-pyrazol-5-yl)-3-((2-(pyrrolidin-1-yl)ethyl)amino)pyridin-2-yl)piperidin-1-yl)-5H-pyrrolo[2,3-d]pyrimidin-6(7H)-one], the pIC50 at human Akt1 was 9.22; at Rsk1, 9.05; on S6K1, 9.22.

Take `COc1cncc(-c2ccc(NCCN(C)C)c(C3CCN(c4ncnc5c4C(C)C(=O)N5)CC3)n2)c1` (stereo not drawn) [Compound 21, 4-(4-(5-((2-(Dimethylamino)ethyl)amino)-5′-methoxy-[2,3′-bipyridin]-6-yl)piperidin-1-yl)-5-methyl-5H-pyrrolo[2,3-d]pyrimidin-6(7H)-one]: the pIC50 at human Akt1 is 8.40; on Rsk1, 8.89; on S6K1, 9.15.

In the case of `CC1C(=O)Nc2ncnc(N3CCC(c4nc(-c5ccsc5)ccc4NCCN(C)C)CC3)c21` (stereo not drawn) [Compound 23, 4-(4-(3-((2-(Dimethylamino)ethyl)amino)-6-(thiophen-3-yl)pyridin-2-yl)piperidin-1-yl)-5-methyl-5H-pyrrolo[2,3-d]pyrimidin-6(7H)-one], the pIC50 was 9.15 on human Akt1, 8.82 on Rsk1 and 9.40 at S6K1.

Regarding `CC(C)NCCNc1ccc(-c2nnc(C(F)F)o2)nc1C1CCN(c2ncnc3c2C(C)(C)C(=O)N3)CC1` [Compound 31, 4-(4-(6-(5-(Difluoromethyl)-1,3,4-oxadiazol-2-yl)-3-((2-(isopropylamino)ethyl)amino)pyridin-2-yl)piperidin-1-yl)-5,5-dimethyl-5H-pyrrolo[2,3-d]pyrimidin-6(7H)-one], the figures for the pIC50 on human Akt1, at Rsk1 and on S6K1 were 8.12, 8.74 and 9.22, respectively.

In the case of `CC(C)NCCNc1ccc(-c2nnc(C(F)(F)F)o2)nc1C1CCN(c2ncnc3c2C(C)(C)C(=O)N3)CC1` [Compound 33, 4-(4-(3-((2-(Isopropylamino)ethyl)amino)-6-(5-(trifluoromethyl)-1,3,4-oxadiazol-2-yl)pyridin-2-yl)piperidin-1-yl)-5,5-dimethyl-5H-pyrrolo[2,3-d]pyrimidin-6(7H)-one], the figures for the pIC50 at human Akt1, on Rsk1 and at S6K1 were 8.60, 9.00 and 9.30, respectively.

As for `CN(CCNc1ccc(-c2nnc(C(F)(F)F)o2)nc1C1CCN(c2ncnc3c2C(C)(C)C(=O)N3)CC1)C(C)(C)C` [Compound 34, 4-(4-(3-((2-(Tert-butyl(methyl)amino)ethyl)amino)-6-(5-(trifluoromethyl)-1,3,4-oxadiazol-2-yl)pyridin-2-yl)piperidin-1-yl)-5,5-dimethyl-5H-pyrrolo[2,3-d]pyrimidin-6(7H)-one], the pIC50 on human Akt1 was 9.00; on Rsk1 it was 9.05; at S6K1 it was 9.40.

`CC(C)(C)NCCNc1ccc(-c2nnc(C(F)F)s2)nc1C1CCN(c2ncnc3c2C(C)(C)C(=O)N3)CC1` [Compound 37, 4-(4-(3-((2-(Tert-butylamino)ethyl)amino)-6-(5-(difluoromethyl)-1,3,4-thiadiazol-2-yl)pyridin-2-yl)piperidin-1-yl)-5,5-dimethyl-5H-pyrrolo[2,3-d]pyrimidin-6(7H)-one]: the pIC50 is 8.48 at human Akt1, 9.30 on Rsk1 and 9.52 at S6K1.

Take `CC(C)NCCNc1ccc(-c2nnc(C(F)F)s2)nc1C1CCN(c2ncnc3c2C(C)(C)C(=O)N3)CC1` [Compound 39, 4-(4-(6-(5-(Difluoromethyl)-1,3,4-thiadiazol-2-yl)-3-((2-(isopropylamino)ethyl)amino)pyridin-2-yl)piperidin-1-yl)-5,5-dimethyl-5H-pyrrolo[2,3-d]pyrimidin-6(7H)-one]: the values for the pIC50 at human Akt1, at Rsk1 and at S6K1 were 8.39, 9.22 and 9.52, respectively.

`CC(C)(C)NCCNc1ccc(-c2nnc(C3CC3)s2)nc1C1CCN(c2ncnc3c2C(C)(C)C(=O)N3)CC1` [Compound 40, 4-(4-(3-((2-(Tert-butylamino)ethyl)amino)-6-(5-cyclopropyl-1,3,4-thiadiazol-2-yl)pyridin-2-yl)piperidin-1-yl)-5,5-dimethyl-5H-pyrrolo[2,3-d]pyrimidin-6(7H)-one]: the results for the pIC50 at human Akt1, on Rsk1 and at S6K1 were 8.44, 9.22 and 9.52, respectively.

Take `CC(C)NCCNc1ccc(-c2noc(C(F)(F)F)n2)nc1C1CCN(c2ncnc3c2C(C)(C)C(=O)N3)CC1` [Compound 42, 4-(4-(3-((2-(Isopropylamino)ethyl)amino)-6-(5-(trifluoromethyl)-1,2,4-oxadiazol-3-yl)pyridin-2-yl)piperidin-1-yl)-5,5-dimethyl-5H-pyrrolo[2,3-d]pyrimidin-6(7H)-one]: the pIC50 is 8.32 at human Akt1, 8.92 on Rsk1 and 9.30 on S6K1.

The record behind these values is US10538528B2, “5H-pyrrolo[2,3-D]pyrimidin-6(7H)-one derivative” (Taiho Pharmaceutical Co., Ltd., priority 2016, dated 2020).
